According to ChEMBL document CHEMBL4130560, “Discovery of Indolinone-Based Multikinase Inhibitors as Potential Therapeutics for Idiopathic Pulmonary Fibrosis” (ACS Med Chem Lett, 2017):

Key:
[1] = biological target: Platelet-derived growth factor receptor beta (Homo sapiens, UniProt P09619); assay: Inhibition of recombinant PDGFRbeta (unknown origin) by off-chip mobility shift assay
[2] = biological target: Voltage-gated inwardly rectifying potassium channel KCNH2 (Homo sapiens, UniProt Q12809)
Voltage-gated inwardly rectifying potassium channel KCNH2, sequence (Q12809 whole entry): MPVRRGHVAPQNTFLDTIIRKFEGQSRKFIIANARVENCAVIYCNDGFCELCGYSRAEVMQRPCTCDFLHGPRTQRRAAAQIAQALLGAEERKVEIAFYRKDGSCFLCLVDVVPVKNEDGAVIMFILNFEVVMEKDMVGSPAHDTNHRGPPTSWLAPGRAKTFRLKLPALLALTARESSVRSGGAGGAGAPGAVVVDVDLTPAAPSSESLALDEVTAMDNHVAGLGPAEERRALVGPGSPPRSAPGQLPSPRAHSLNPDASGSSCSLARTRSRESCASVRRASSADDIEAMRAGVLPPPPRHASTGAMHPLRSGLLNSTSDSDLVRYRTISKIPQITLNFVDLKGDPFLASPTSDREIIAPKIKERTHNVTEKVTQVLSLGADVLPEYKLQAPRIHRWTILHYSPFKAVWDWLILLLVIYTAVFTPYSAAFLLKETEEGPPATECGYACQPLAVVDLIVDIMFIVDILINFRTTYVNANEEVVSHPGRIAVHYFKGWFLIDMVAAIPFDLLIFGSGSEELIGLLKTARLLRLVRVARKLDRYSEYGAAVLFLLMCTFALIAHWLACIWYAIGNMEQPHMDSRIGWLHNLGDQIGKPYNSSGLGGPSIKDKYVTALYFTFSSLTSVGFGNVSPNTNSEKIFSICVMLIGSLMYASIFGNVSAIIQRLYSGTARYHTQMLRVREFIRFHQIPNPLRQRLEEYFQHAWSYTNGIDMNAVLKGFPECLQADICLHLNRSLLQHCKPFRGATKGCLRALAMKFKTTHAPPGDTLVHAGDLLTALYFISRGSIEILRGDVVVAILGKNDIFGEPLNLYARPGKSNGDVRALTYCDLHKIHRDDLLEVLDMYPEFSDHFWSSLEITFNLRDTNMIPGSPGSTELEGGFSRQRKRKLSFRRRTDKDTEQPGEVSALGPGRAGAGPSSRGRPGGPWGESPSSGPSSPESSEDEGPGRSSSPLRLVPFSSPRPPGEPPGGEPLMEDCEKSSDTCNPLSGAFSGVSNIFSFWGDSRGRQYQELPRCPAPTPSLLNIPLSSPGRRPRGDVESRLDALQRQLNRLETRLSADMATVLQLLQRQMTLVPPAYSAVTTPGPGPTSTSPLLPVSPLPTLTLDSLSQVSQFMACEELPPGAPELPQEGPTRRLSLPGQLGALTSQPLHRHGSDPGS

[3] = system: Mus musculus; assay: Antifibrotic activity in BLM-induced chronic pulmonary fibrosis C57 mouse model assessed as increase in survival rate administered qd measured up to 28 days; assay type: functional, organism-based
[4] = Half life in Sprague-Dawley rat at 10 mg/kg, iv by UFLC-MS/MS analysis; assay type: ADME, organism-based; conditions: in vivo
[5] = Oral bioavailability in Beagle dog […] at 20 mg/kg administered via gavage by UFLC-MS/MS analysis; assay type: ADME, organism-based, Canis lupus familiaris; conditions: in vivo
[6] = AUC in Beagle dog […] at 20 mg/kg, iv by UFLC-MS/MS analysis; assay type: ADME, organism-based, Canis lupus familiaris; conditions: in vivo
[7] = Oral bioavailability in Sprague-Dawley rat at 10 mg/kg administered via gavage by UFLC-MS/MS analysis; assay type: ADME, organism-based; conditions: in vivo
[8] = Oral bioavailability in CD1 mouse at 50 mg/kg administered via gavage by UFLC-MS/MS analysis; assay type: ADME, organism-based; conditions: in vivo
[9] = biological target: Mast/stem cell growth factor receptor Kit (Homo sapiens, UniProt P10721); assay: Inhibition of recombinant c-KIT (unknown origin) by off-chip mobility shift assay
Mast/stem cell growth factor receptor Kit, sequence (P10721 whole entry): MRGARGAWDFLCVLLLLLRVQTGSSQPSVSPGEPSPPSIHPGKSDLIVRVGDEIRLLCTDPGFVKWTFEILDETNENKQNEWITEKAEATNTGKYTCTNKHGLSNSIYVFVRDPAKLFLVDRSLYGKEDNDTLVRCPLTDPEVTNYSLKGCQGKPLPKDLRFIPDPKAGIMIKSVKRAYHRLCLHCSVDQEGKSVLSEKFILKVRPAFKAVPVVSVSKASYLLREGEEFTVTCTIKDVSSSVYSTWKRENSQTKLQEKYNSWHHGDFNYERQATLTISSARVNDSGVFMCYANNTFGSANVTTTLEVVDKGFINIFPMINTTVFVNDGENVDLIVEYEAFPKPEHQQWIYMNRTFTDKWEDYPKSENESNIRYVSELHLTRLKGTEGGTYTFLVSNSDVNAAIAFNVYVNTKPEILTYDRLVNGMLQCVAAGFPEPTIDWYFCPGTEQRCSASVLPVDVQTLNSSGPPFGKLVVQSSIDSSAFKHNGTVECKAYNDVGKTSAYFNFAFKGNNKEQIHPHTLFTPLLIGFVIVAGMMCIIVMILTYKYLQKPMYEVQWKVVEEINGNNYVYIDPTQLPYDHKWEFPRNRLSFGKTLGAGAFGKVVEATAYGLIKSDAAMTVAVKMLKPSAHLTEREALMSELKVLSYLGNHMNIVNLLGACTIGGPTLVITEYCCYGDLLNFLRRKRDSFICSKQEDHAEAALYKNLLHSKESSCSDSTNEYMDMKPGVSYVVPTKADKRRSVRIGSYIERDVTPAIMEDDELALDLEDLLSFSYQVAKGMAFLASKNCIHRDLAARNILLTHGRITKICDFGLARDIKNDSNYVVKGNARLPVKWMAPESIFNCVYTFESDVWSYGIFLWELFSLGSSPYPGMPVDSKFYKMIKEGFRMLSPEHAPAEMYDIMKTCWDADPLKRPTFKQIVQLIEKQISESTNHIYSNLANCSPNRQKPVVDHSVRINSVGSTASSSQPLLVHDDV

[10] = system: Mus musculus; assay: Toxicity in C57 mouse at 10 to 100 mg/kg, po administered qd measured up to 28 days; assay type: organism-based; conditions: in vivo, 672 h
[11] = AUC in CD1 mouse at 50 mg/kg, iv by UFLC-MS/MS analysis; assay type: ADME, organism-based; conditions: in vivo
[12] = Half life in CD1 mouse at 50 mg/kg, iv by UFLC-MS/MS analysis; assay type: ADME, organism-based; conditions: in vivo
[13] = Half life in Beagle dog […] at 20 mg/kg, iv by UFLC-MS/MS analysis; assay type: ADME, organism-based, Canis lupus familiaris; conditions: in vivo
[14] = AUC in Sprague-Dawley rat at 10 mg/kg, iv by UFLC-MS/MS analysis; assay type: ADME, organism-based; conditions: in vivo
[15] = system: Mus musculus; assay: Toxicity in C57 mouse assessed as lethality at 5 mg/kg, iv after 28 days; assay type: organism-based; conditions: in vivo, 672 h

Platelet-derived growth factor receptor beta, sequence (P09619 whole entry): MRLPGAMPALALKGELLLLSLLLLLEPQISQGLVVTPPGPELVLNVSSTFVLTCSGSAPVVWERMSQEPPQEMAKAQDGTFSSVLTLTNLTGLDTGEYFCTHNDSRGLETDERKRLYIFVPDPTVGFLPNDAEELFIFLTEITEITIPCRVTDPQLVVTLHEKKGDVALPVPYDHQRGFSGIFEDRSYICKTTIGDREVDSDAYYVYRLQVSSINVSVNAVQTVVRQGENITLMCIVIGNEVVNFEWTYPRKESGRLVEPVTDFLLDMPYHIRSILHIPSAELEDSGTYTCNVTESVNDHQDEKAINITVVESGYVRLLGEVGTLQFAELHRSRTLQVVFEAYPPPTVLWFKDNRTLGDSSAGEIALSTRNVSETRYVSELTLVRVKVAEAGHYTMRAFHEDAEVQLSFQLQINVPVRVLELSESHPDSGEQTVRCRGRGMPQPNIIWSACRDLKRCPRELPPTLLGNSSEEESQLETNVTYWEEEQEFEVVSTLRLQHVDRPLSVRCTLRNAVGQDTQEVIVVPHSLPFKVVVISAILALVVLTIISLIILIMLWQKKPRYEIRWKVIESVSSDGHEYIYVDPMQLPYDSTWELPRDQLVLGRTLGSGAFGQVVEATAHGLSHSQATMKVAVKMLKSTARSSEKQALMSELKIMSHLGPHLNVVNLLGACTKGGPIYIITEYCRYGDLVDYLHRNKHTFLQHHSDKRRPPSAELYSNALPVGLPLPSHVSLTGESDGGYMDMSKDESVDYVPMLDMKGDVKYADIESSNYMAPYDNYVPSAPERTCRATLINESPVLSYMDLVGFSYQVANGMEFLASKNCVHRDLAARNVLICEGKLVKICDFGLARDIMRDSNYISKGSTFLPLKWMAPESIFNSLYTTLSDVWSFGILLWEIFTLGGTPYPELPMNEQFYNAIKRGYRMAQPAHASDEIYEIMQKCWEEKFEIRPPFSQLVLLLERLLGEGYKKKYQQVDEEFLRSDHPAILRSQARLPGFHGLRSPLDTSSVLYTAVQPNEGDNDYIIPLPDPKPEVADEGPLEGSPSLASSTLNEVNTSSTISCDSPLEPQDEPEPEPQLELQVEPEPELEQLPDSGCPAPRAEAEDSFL

SMILES | IC50 [1] [nM] | IC50 [2] [nM] | other results
COC(=O)c1ccc2c(c1)NC(=O)/C2=C(\Nc1ccc2c(c1)N(C(=O)CN(C)C)CC2)c1ccccc1 | 15 | – | –
COC(=O)c1ccc2c(c1)NC(=O)/C2=C(\Nc1ccc2c(c1)N(C(=O)CN1CC(C)OC(C)C1)CC2)c1ccccc1 (stereo unspecified) | 91 | > 30 | –
COC(=O)c1ccc2c(c1)NC(=O)/C2=C(\Nc1ccc2c(c1)N(C(=O)Cn1cncn1)CC2)c1ccccc1 | 15 | > 30 | –
CN1CCN(CC(=O)N(C)c2ccc(N/C(=C3\C(=O)Nc4cc(-c5ncno5)ccc43)c3ccccc3)cc2)CC1 | 4.5 | – | –
COC(=O)c1ccc2c(c1)NC(=O)/C2=C(\Nc1ccc(N(C)C(=O)CN2CCN(C)CC2)cc1)c1ccccc1 [NINTEDANIB] | – | 2.6 | –
COC(=O)c1ccc2c(c1)NC(=O)/C2=C(\Nc1ccc2c(c1)N(C(=O)Cn1cccn1)CC2)c1ccccc1 | 24 | > 30 | –
COC(=O)c1ccc2c(c1)NC(=O)/C2=C(\Nc1ccc2c(c1)N(C(=O)CN1CCOCC1)CC2)c1ccccc1 | 25 | > 30 | Activity [3]: Dose-dependent effect; half-life [4]: 4.8 h; bioavailability [5]: 29%; AUC [6]: 2960 ng·h/mL; bioavailability [7]: 68%; bioavailability [8]: 51%; IC50 [9]: 10 nM; Activity [10]: Non-Toxic; AUC [11]: 17000 ng·h/mL; half-life [12]: 4.3 h; half-life [13]: 3.3 h; AUC [14]: 6410 ng·h/mL
CN1CCN(CC(=O)N(C)c2ccc(N/C(=C3\C(=O)Nc4cc(-c5ncon5)ccc43)c3ccccc3)cc2)CC1 | 5.3 | – | Activity [15]: Toxic
COC(=O)c1ccc2c(c1)NC(=O)/C2=C(\Nc1ccc2c(c1)N(C(=O)CN1CCCC1=O)CC2)c1ccccc1 | 19 | > 30 | –
CN1CCN(CC(=O)N(C)c2ccc(N/C(=C3\C(=O)Nc4cc(-c5cnco5)ccc43)c3ccccc3)cc2)CC1 | 34 | – | –
CN1CCN(CC(=O)N(C)c2ccc(N/C(=C3\C(=O)Nc4cc(-c5ccco5)ccc43)c3ccccc3)cc2)CC1 | 12 | – | –
CN1CCN(CC(=O)N(C)c2ccc(N/C(=C3\C(=O)Nc4cc(-c5nnn(C)n5)ccc43)c3ccccc3)cc2)CC1 | 13 | – | –

More lines, main results first:

IC50 [1] [nM] | SMILES | IC50 [2] [nM] | other results
14 | COC(=O)c1ccc2c(c1)NC(=O)/C2=C(\Nc1ccc(N2C(=O)CC[C@@H]2CN(C)C)cc1)c1ccccc1 | – | –
4.3 | COC(=O)c1ccc2c(c1)NC(=O)/C2=C(\Nc1ccc(N2C(=O)CC[C@H]2CN2CCN(C)CC2)cc1)c1ccccc1 | – | –
3.2 | COC(=O)c1ccc2c(c1)NC(=O)/C2=C(\Nc1ccc(N2C(=O)CC[C@@H]2CN2CCN(C)CC2)cc1)c1ccccc1 | – | –
27 | CN1CCN(CC(=O)N(C)c2ccc(N/C(=C3\C(=O)Nc4cc(OC(F)(F)F)ccc43)c3ccccc3)cc2)CC1 | – | –
45 | COC(=O)c1ccc2c(c1)NC(=O)/C2=C(\Nc1ccc(N2CCC(CN3CCN(C)CC3)C2=O)cc1)c1ccccc1 (stereo unspecified) | – | –
1.5 | CN1CCN(CC(=O)N(C)c2ccc(N/C(=C3\C(=O)Nc4cc(-n5nccn5)ccc43)c3ccccc3)cc2)CC1 | – | –
